Values of other authors as cited in US7700798B1, “Erogorgiaene congeners and methods and intermediates useful in the preparation of same” (The Research Foundation of State University of New York, priority 2005, dated 2010).

Conditions: literature statement, comparison with the commercially used natural products

Elisabethadione
anti-inflammatory potency compared with the pseudopterosins: more potent than the related and commercially used natural products, the pseudopterosins
